Measurements taken from paper PMC11124341, “4-Hydroxybenzoic Acid-Based Hydrazide–Hydrazones as Potent Growth Inhibition Agents of Laccase-Producing Phytopathogenic Fungi That Are Useful in the Protection of Oilseed Crops” (Molecules, 2024).
Converted amounts (≈) assume the structure as drawn.

Legend:
[1] = system: Candida; parameters: method as in PMID 23142671; settings: cited from earlier work
[2] = system: NIH3T3 cell line; parameters: method as in PMID 23142671; settings: read-out: IC50 against NIH3T3 cell line; cited from earlier work
[3] = system: hepatitis C virus (HCV); parameters: method as in PMID 26695731; settings: read-out: EC50 against HCV; cited from earlier work
[4] = system: Mahlavu line; parameters: method as in PMID 26695731; settings: cited from earlier work
[5] = target: laccase from Trametes versicolor; experiment: Laccase inhibition kinetic study; assay type: biochemical; settings: determined in this study for 32 (table cites [75]), SD = 5.75 (%)
Description: The inhibition constant for 32 was determined according to procedures and calculations reported previously using commercially available laccase from Trametes versicolor (Sigma-Aldrich).

[6] = system: Botrytis cinerea strain FBc05; experiment: In vitro antifungal activity, mycelial growth inhibition on PDA medium; assay type: cell-based; settings: screening at basal 50 µg/mL, PDA medium, mean ± SD of three determinations
Description: (§1) The cultures of Botrytis cinerea strain FBc05 and Sclerotinia sclerotiorum strain FSc10 were obtained from the collection of the Division of Plant Pathology and Mycology at the Department of Plant Protection of Wroclaw University of Environmental and Life Sciences (Poland). Cerrena unicolor (Bull.ex.Fr.) Murr, strain no. 139, originated from the culture collection of the Department of Biochemistry, University of Lublin (Poland). The stock cultures were maintained on potato dextrose agar at +4 °C and periodically transferred to a fresh medium.
(§2) Prior to the fungicidal activity assay of hydrazide–hydrazones 1–35, we considered ethanol and DMSO as potential dissolution media for tested compounds. […] Furthermore, a very important aspect of biological testing is the careful selection of organic solvents. These are typically used, e.g., methanol, ethanol, acetone, and DMSO, and may be highly toxic for microorganisms in even very low concentrations, such as 1% (v/v). Ethanol and DMSO with a final concentration between 0.1 and 1.0% (v/v) in a PDA medium were used and applied to evaluate the inhibition growth of B. cinerea, S. sclerotiorum, and C. unicolor (see Supplementary Materials). The following procedure was applied to the microorganism testing. The assays of fungi inhibition growth were performed at a basal concentration of 50 µg/mL for all compounds, and detailed experiments were extended for testing between 0 and 50 µg/mL (0, 6.25, 12.5, 25.0, and 50.0 µg/mL) for selected compounds. The tests were carried out on Petri dishes (diameter 60 mm) with PDA medium containing appropriate compound, co-solvent control, and hydrazide–hydrazone dissolved in co-solvent assay. A piece of mycelium with a 5 mm edge taken from the outer edge of the growing fungi on the PDA plate with co-solvent was transferred to a central part of the PDA plate with the examined compound. The plates thus inoculated were incubated at 22 °C in the dark for a time when the control plate containing only the co-solvent was covered entirely with the tested microorganism. For B. cinerea and S. sclerotiorum, the test took 3 days, and for C. unicolor, it took 7 days. Each assay was performed at least in triplicate. […] Model parameters c and e were estimated using the nonlinear least-squares method. Parameters d and b (with two exceptions) were fixed and assumed to be equal. Based on estimated parameters, the values of IC50 were determined. […] The IC50 values were calculated only in cases when the model predicted a decrease in growth rate by more than 50%.
(§3) In vitro antifungal activity
(§4) Prior to the fungicidal activity assay of hydrazide-hydrazones 1–35, we considered ethanol (EtOH) and DMSO as potential dissolution media for tested compounds.
(§5) EtOH and DMSO with a final concentration between 0.1–1.0% (v/v) in a PDA medium were applied to evaluate the inhibition growth of B. cinerea, S. sclerotiorum, and C. unicolor (see Table S3). The following procedure was applied to the microorganism testing with the hydrazide-hydrazones. The assays of fungi inhibition growth were performed at a basal concentration of 50 µg/mL for all compounds, and detailed experiments were extended for testing selected molecules 18, 19, 27, […]
(§6) Table S2. In vitro antifungal activity for DMSO and ethanol co-solvents.

[7] = system: Sclerotinia sclerotiorum strain FSc10; experiment: as above; assay type: cell-based; settings: screening at basal 50 µg/mL, PDA medium, mean ± SD of three determinations
Description: as §1, §2, §3, §4, §5, §6

[8] = system: Cerrena unicolor strain no. 139; experiment: as above; assay type: cell-based; settings: Cerrena unicolor, NO.139; screening at basal 50 µg/mL, PDA medium, mean ± SD of three determinations; read-out: fungal growth inhibition, C. unicolor
Description: as §1, §2, §3, §4, §5, §6

[9] = system: Alternaria alternata (Fr.) Keissl; parameters: method as in PMID 24582134; settings: cited from earlier work
[10] = system: Rhizopus oryzae; parameters: method as in PMID 24582134; settings: cited from earlier work
[11] = system: B. cinerea; parameters: method as in PMID 24582134; settings: cited from earlier work
[12] = system: Fusarium oxysporum Schltdl.; parameters: method as in PMID 24582134; settings: cited from earlier work

SMILES: Cn1nnnc1SCC(=O)N/N=C/c1ccc(O)cc1 [II]
- MIC, anticandidal activity [1]: 500 to 1000 µg/mL
- IC50 [2]: 632 µM

SMILES: O=C(NN=Cc1ccccn1)c1cc(-c2ccc(F)cc2F)ccc1O [XI]
- EC50 [3]: 3.9 µM
- EC50 [4]: 4.74 µM

SMILES: O=C(N/N=C/c1c(O)cc(O)c(/C=N/NC(=O)c2ccc(O)cc2)c1O)c1ccc(O)cc1 [compound 32, N′,N″-[(2,4,6-trihydroxy-1,3-phenylene)di-(E)-methanylylidene]bis(4-hydroxybenzohydrazide)]
- melting point: 223 to 226 °C (dec.)
- Ki [5]: 194 µM
- fungal growth inhibition, B. cinerea [6]: n.o.
- fungal growth inhibition, S. sclerotiorum [7]: n.o.
- inhibition of growth at 50 µg/mL [8]: 14.3 ± 2.7%

SMILES: Cc1ccc(C(C)C)c(O)c1 [thymol]
- MIC (minimum inhibitory concentration), Alternaria alternata [9]: 400 µg/mL (≈ 2660 µM)
- MIC (minimum inhibitory concentration), Rhizopus oryzae [10]: 450 µg/mL (≈ 3000 µM)
- MIC (minimum inhibitory concentration), B. cinerea [11]: 300 µg/mL (≈ 2000 µM)
- MIC (minimum inhibitory concentration), Fusarium oxysporum [12]: 300 µg/mL (≈ 2000 µM)
